Read-outs that look alike come from different tables or passages of the source.
Assays:
GPR88 KO and WT mice [1] = assay: Phencyclidine-stimulated locomotor hyperactivity; assay type: in vivo
[2] = molecular target: T1, striatal dopamine D2 receptors (Mus musculus, UniProt P61168); assay: [3H]spiperone binding to striatal membrane preparations; set-up: species or system mice
T1 construct: from tissue; host or cells: mouse striatum (WT and GPR88 knockout mice), membrane preparation
Protocol: Striata from 10 mice (male and female, WT & GPR88 KO) were pooled and homogenized in a motor-driven POLYTRON™ homogenizer (Kinematica AG, Newark, N.J.) at setting six for 10 seconds in 3 mL per 100 mg of wet tissue in 50 mM Tris-HCl buffer, pH 7.4, containing 120 mM NaCl, 5 mM KCl, 1.5 mM CaCl2, 4 mM MgCl2, and 1 mM EDTA. […] The binding of each concentration of radioligand was determined in duplicate. Incubations were carried out at room temperature for 120 minutes. The final concentration of the membrane protein in each binding assay was approximately 70 μg/ml. Butaclamol (+), (10 μM), (Sigma-Aldrich, St. Louis, Mo.) was used to define the nonspecific binding. The incubations were terminated by rapid filtration using a Wallac Tomtec harvester (Waltham, Mass.) and buffer-presoaked glass fiber filter mats (GF/B, Whatman Inc. Florham Park, N.J.). […] The radioactivity of the filters was then counted in a Wallac 1205 scintillation counter (Perkin Elmer Life and Analytical Sciences).
The estimates of Bmax (the number of available binding receptors) and Kd (the dissociation constant) were calculated by fitting the specific binding data with nonlinear regression using GraphPad PRISM™ data analysis software (GraphPad Software, San Diego, Calif.).

GPR88 KO and WT mice [3] = assay: In vivo striatal microdialysis, extracellular dopamine after amphetamine; conditions: 3 mg/kg i.p.; both genotypes, males and females
Protocol: Chromatographic separations were performed using a Capcell PAK™, Strong Cation Exchange columns (5 μm UG80, 1.5×150 mm; Shiseido, Phenomenex, USA). The mobile phase comprised (mM) 13 Na2HPO4, 87 NaH2PO4, 0.1 EDTA and 20% methanol, was adjusted to pH 6 and delivered at 0.2 ml/minutes at 40° C.

GPR88 KO and WT mice [4] = assay: Amphetamine-stimulated locomotor hyperactivity; assay type: in vivo; conditions: 3 mg/kg i.p.
Protocol: The amphetamine-stimulated locomotor hyperactivity assay is another type of assay to model the neuropathological states in schizophrenia, similar to the hyperdopaminergia in the ventral striatum. To measure spontaneous activity and amphetamine-stimulated locomotor hyperactivity, the mice were individually placed in Opto-Veramax-3 monitor cages (Columbus Instruments, Columbus, Ohio) and allowed to habituate for 30 minutes with room light and white noise on. After habituation, each mouse was injected with amphetamine (AMPH, 3 mg/kg) in the intraperitoneum. During the first 30 minutes, the spontaneous activity was recorded every 10 minutes. After amphetamine administration, amphetamine-stimulated locomotor hyperactivity was measured every 10 minutes over a 60 minutes time span by the activity monitor. Accuscan Versamax and Versadat software (Columbus Instruments, Columbus, Ohio) were used to convert the infrared beam breaks into horizontal activity counts. […] Males and females were analyzed separately.

GPR88 KO and WT mice [5] = assay: Apomorphine-induced climbing and stereotypy; assay type: in vivo
Protocol: (§1) The GPR88 KO and WT mice were acclimated to a wire cage (cylindrical ½″×½″ mesh with the dimensions of 4½″ d×5½″ h) for at least 2 hours before testing to allow proper habituation. […] (+ present, − absent). Readings were repeated every 5 minutes during a 30-minute test session.
The behavioral assessment was conducted over three conditions in succession: (1) an evaluation of the response to a subcutaneous vehicle (0.25% TWEEN® 80) injection to establish a baseline; (2) followed by an evaluation of the response to a dose of 0.3 mg/kg subcutaneous apomorphine injection; (3) followed by an evaluation of the response to 1 mg/kg subcutaneous apomorphine injection. Behavioral observation began 5 minutes after each injection. Vehicle was given at T0 minutes with observational assessment from T5-T35 minutes and habituation followed from T35-T65 minutes.
At T65, the 0.3 mg/kg dose of apomorphine was administered. Behavioral observation for the 0.3 mg/kg dose of apomorphine was from T70-T100, followed by another habituation from T100-T130 minutes.
At T130 min, the 1.0 mg/kg dose of apomorphine was administered and then the mice were scored from T135-T165 min. For each subject, the climbing scores were totaled for each observational period (maximum=12 per animal). Stereotypy scores were also summed up (maximum=6 per animal). […] Males and females were analyzed separately.

GPR88 KO and WT mice [6] = assay: Haloperidol-induced catalepsy; conditions: 1 mg/kg i.p.; for percentage of maximum catalepsy over time: 30, 60, 90, 120 minutes
Protocol: Thirty, 60, 90, and 120 minutes following drug administration, the animal's forelimbs were draped over a thin horizontal rod 1¼″ high. The amount of time in seconds for which the animal maintained this awkward posture was recorded (60 seconds was maximum). Maintenance of this position was considered catalepsy. Animals that appeared to be sedated or had loss of muscle tone were checked for a righting reflex. Those mice that could not right themselves when placed on their backs were eliminated from the study. Mean time spent in the catalepsy position for the dose at each time was expressed as a percentage of maximum possible catalepsy. During the study's four time periods, the number of seconds with maintenance of the catalepsy position was recorded for each animal. Data was subjected to repeated-measures ANOVA followed by post-hoc analysis of least squares means. Males and females were analyzed separately.

GPR88 KO and WT mice [7] = assay: Antipsychotic block of apomorphine-induced climbing and stereotypy; assay type: in vivo; conditions: for minimal effective dose (MED), block of apomorphine-induced climbing / minimal effective dose (MED), block of apomorphine-induced stereotypy: i.p. 30 minutes before apomorphine 0.54 mg/kg
Protocol: as §1
Observation and scoring for climbing and stereotypy were performed as described in Example 6. […] Males and females were analyzed separately. […] For graphical representation, the data was normalized to the amount of climbing and stereotypy shown by the vehicle treated control group.

GPR88 KO and WT mice [8] = conditions: for percentage prepulse inhibition (PPI), treatment effect: 0.54 mg/kg i.p. 30 minutes before testing, vs vehicle
Protocol: To detect potential phenotypic deficits in the GPR88 knockout mice, they were first evaluated for startle habituation. In brief, mice were tested using the SR-LAB (San Diego Instruments, San Diego, Calif.) system. Each system consists of a ventilated sound attenuated chamber containing a stabilimeter consisting of a Plexiglas cylinder (12.5 cm length, 3.5 cm diameter) mounted on a Plexiglas frame. Acoustic stimuli were delivered through a speaker mounted in the enclosure ceiling, that was 27 cm above the cylinder. Startle responses were transduced by a piezoelectric accelerometer mounted beneath the frame. Output signals were digitized and rectified as consecutive 1-millisecond (msec) readings (a total of 65 were recorded, and startle response was expressed as an averaged response across these samples) on a computer using the San Diego Instrument software. Mice were placed individually in the chamber for a 5-minute acclimation period at a background noise level of 64 dB.
Prepulse inhibition was measured immediately following the startle sensitivity test. Five different trial tests were used in studying prepulse inhibition and were performed in a pseudorandom order. These trial tests included (1) a no stimulus trial (64 dB background noise to determine basal activity), a pulse alone trial (118 dB, 40 ms duration), and three 20 ms prepulses at either 69, 76, or 84 dB intensities paired (100 ms, onset to onset) with the 118 dB pulse. […] Percentage prepulse inhibition was calculated as 100 minus the ratio of the average startle response observed at each prepulse+pulse trial relative to the pulse alone stimulus, times 100. The percentage prepulse at across dB levels was analyzed by repeated-measures ANOVA. […] Males and females were analyzed separately. […]
The PPI was averaged across the 3 dB levels and analyzed by a two-way ANOVA with genotype and treatment as the factors followed by a post hoc analysis of least square means. Males and females were again analyzed separately.

[9] = female GPR88 KO and WT mice, 1 mg/kg s.c.
[10] = GPR88 KO and WT female mice, 0.3 mg/kg
[11] = male WT mice, 0.54 and 1.0 mg/kg

T1 sequence (P61168 whole entry): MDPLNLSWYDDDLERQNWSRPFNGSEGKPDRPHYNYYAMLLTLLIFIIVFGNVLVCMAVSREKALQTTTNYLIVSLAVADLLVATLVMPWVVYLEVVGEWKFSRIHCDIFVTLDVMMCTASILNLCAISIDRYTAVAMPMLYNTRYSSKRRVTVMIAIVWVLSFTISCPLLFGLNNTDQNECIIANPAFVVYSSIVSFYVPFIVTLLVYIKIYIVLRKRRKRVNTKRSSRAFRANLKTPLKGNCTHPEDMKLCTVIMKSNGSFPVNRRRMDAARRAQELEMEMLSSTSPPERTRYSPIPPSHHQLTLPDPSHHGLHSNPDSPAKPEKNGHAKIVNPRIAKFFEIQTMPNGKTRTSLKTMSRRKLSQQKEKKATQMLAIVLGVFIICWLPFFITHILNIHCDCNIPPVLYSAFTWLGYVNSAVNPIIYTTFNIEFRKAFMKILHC

c1ccc(C2(N3CCCCC3)CCCCC2)cc1 [PCP, phencyclidine]
locomotor activity after administration (GPR88 KO and WT mice [1]; female WT and GPR88 KO mice, 1.0 mg/kg): Neither of the genotypes responded
locomotor activity after administration (GPR88 KO and WT mice [1]; female WT and GPR88 KO mice, 1.7 mg/kg or 3.0 mg/kg): increased locomotor activity
locomotor activation (total distance traveled), KO compared with WT (GPR88 KO and WT mice [1]; female mice): increased sensitivity for locomotor activation
locomotor activity after administration (GPR88 KO and WT mice [1]; male WT and GPR88 KO mice, 3 mg/kg i.p.): increased locomotor activity
locomotor activity after administration (GPR88 KO and WT mice [1]; male WT and GPR88 KO mice, lower doses (1.0, 1.7 mg/kg)): Neither of the genotypes responded
locomotor activation (total distance traveled), KO compared with WT (GPR88 KO and WT mice [1]; male mice): increased sensitivity for locomotor activation

O=C(CCCN1CCC2(CC1)C(=O)NCN2c1ccccc1)c1ccc(F)cc1 [[^3H]spiperone]
Bmax (the number of available binding receptors) ([2]; striatal membranes of GPR88 KO mice): 1.83 pmol/mg
Bmax (the number of available binding receptors) ([2]; striatal membranes of WT mice): 1.34 pmoles/mg protein

CC(N)Cc1ccccc1 (centres unmarked) [amphetamine]
striatal extracellular dopamine after administration (GPR88 KO and WT mice [3]): significant and equal increase in dopamine
locomotor activity after administration (GPR88 KO and WT mice [4]; female mice, 40-90 min): significant increase in activity
locomotor activity, KO compared with WT (GPR88 KO and WT mice [4]; female mice, 40-90 min): more hyperactivity overall
locomotor activity after administration (GPR88 KO and WT mice [4]; male mice (GPR88 KO), 40-90 min): significant increase in activity
locomotor activity, KO compared with WT (GPR88 KO and WT mice [4]; male mice): greater increase in activity up to the 50 minute time point

CN1CCc2cccc3c2[C@H]1Cc1ccc(O)c(O)c1-3 [apomorphine]
average increase in climbing scores of GPR88 KO mice over the wild type mice (GPR88 KO and WT mice [5]; apomorphine-induced): 227%
average increase in stereotypy scores of GPR88 KO mice over the wild type mice (GPR88 KO and WT mice [5]; apomorphine-induced): 129%
climbing, dose effect (GPR88 KO and WT mice [5]; [9]): the most climbing
stereotypy, dose effect (GPR88 KO and WT mice [5]; [9]): the most stereotypy
climbing scores, KO compared with WT (GPR88 KO and WT mice [5]; female mice, 0.3 mg/kg s.c.): higher climbing scores
stereotypy, KO compared with WT (GPR88 KO and WT mice [5]; female mice, 0.3 mg/kg s.c.): more stereotypy
climbing, KO compared with WT (GPR88 KO and WT mice [5]; female mice, 1 mg/kg s.c.): equivalent
stereotypy scores, dose effect (GPR88 KO and WT mice [5]; male GPR88 KO and WT mice, 1 mg/kg s.c.): maximal stereotypy
climbing scores, dose effect (GPR88 KO and WT mice [5]; male GPR88 KO and WT mice, vehicle, 0.3 and 1 mg/kg s.c.): climbing increasing with the dose of apomorphine
climbing scores, KO compared with WT (GPR88 KO and WT mice [5]; male mice, 0.3 mg/kg s.c.): higher climbing scores
stereotypy, KO compared with WT (GPR88 KO and WT mice [5]; male mice, 0.3 mg/kg s.c.): more stereotypy
climbing, KO compared with WT (GPR88 KO and WT mice [5]; male mice, 1 mg/kg s.c.): equivalent
stereotypy, KO compared with WT (GPR88 KO and WT mice [5]; male mice, 1 mg/kg s.c.): equivalent

O=C(CCCN1CCC(O)(c2ccc(Cl)cc2)CC1)c1ccc(F)cc1 [haloperidol]
percentage of maximum catalepsy over time (GPR88 KO and WT mice [6]; GPR88 KO and WT male mice): percentage of maximum catalepsy increasing to the 120 minute test point
percentage of maximum catalepsy over time (GPR88 KO and WT mice [6]; female mice): percentage of maximum catalepsy increasing to the 120 minute test point
level of catalepsy, GPR88 KO compared with WT (GPR88 KO and WT mice [6]; male and female mice): equivalent levels of catalepsy
block of apomorphine-induced climbing (GPR88 KO and WT mice [7]; [10]): full block of climbing
block of apomorphine-induced stereotypy (GPR88 KO and WT mice [7]; [10]): full block of stereotypy
dose required to produce a full block of climbing (GPR88 KO and WT mice [7]; male GPR88 KO mice): 1.0 mg/kg
minimal effective dose, apomorphine-induced climbing and stereotypy (summary) (GPR88 KO and WT mice [7]; male GPR88 KO mice): 0.54 mg/kg
block of apomorphine-induced stereotypy (GPR88 KO and WT mice [7]; male GPR88 KO mice, 1.0 mg/kg): 50%
minimal effective dose (MED), block of apomorphine-induced climbing (GPR88 KO and WT mice [7]; male GPR88 KO mice): 0.54 mg/kg
minimal effective dose (MED), block of apomorphine-induced stereotypy (GPR88 KO and WT mice [7]; male GPR88 KO mice): 0.54 mg/kg
minimal effective dose, apomorphine-induced climbing and stereotypy (summary) (GPR88 KO and WT mice [7]; male WT mice): < 0.3 mg/kg
block of apomorphine-induced climbing (GPR88 KO and WT mice [7]; [11]): full block of climbing
block of apomorphine-induced stereotypy (GPR88 KO and WT mice [7]; [11]): full block of stereotypy
minimal effective dose (MED), block of apomorphine-induced climbing (GPR88 KO and WT mice [7]; male WT mice): less than or equal to 0.3 mg/kg
minimal effective dose (MED), block of apomorphine-induced stereotypy (GPR88 KO and WT mice [7]; male WT mice): less than or equal to 0.3 mg/kg

Cc1nc2n(c(=O)c1CCN1CCC(c3noc4cc(F)ccc34)CC1)CCCC2 [risperidone]
deficit in PPI of GPR88 KO mice upon treatment (GPR88 KO and WT mice [8]; GPR88 KO mice, summary statement): normalized
percentage prepulse inhibition (PPI), treatment effect (GPR88 KO and WT mice [8]; male GPR88 KO mice): significant treatment effect
percentage prepulse inhibition (PPI), treatment effect (GPR88 KO and WT mice [8]; male WT mice): significant treatment effect
